# Measured values from patent publication US8642660B2, “Method for altering the lifespan of eukaryotic organisms” (The University of Rochester, priority 2007, dated 2014).
# How the values were obtained:
# [1] = tested on: yeast cells; assay: "775" DeaD assay, single-concentration screen for countering nicotinamide lifespan shortening; type: cell-based, Saccharomyces cerevisiae; design: key: compounds that exhibited >26% inhibition are defined as active; Compounds that exhibited <=26% inhibition are defined as inactive; conditions: compounds 10 uM, 1.5 mM nicotinamide, 48 hours, OD615
# Source text: Having established the suitability of the DeaD assay as a proxy for microdissection, the DeaD assay was used to screen a 132,796 compound library for the ability of compounds in the library to counter the lifespan-shortening effect of nicotinamide.
# Specifically, as described in the AID 775 assay results (synonymously, the “775” assay results) on the “PubChem” website at pubchem.ncbi.nlm.nih.gov/assay/assay.cgi?aid=775, the contents of which are herein incorporated in their entirety by reference, the percent inhibition of nicotinamide lifespan shortening, i.e. percent reversal of nicotinamide effect on lifespan, was calculated using the optical density in control wells with cells treated with 1.5 mM nicotinamide as full lifespan shortening effect of nicotinamide (0% inhibition of nicotinamide), and wells with cells grown in medium without nicotinamide as an indicator of 100% inhibition. The appropriate compounds in the PubChem compound library (about 132,000 compounds selected from the total library of about 10 million compounds) were screened at 10 uM in the presence of 1.5 mM nicotinamide. For further details, see, e.g., the following references: Jarolim, S., Millen, J., Heeren, G., Laun, P., Goldfarb, D. S. and M. Breitenbach. (2004). A novel assay for replicative lifespan in Saccharomyces cerevisiae. FEMS Yeast Res. 5, 169-177; Bitterman, K. J., Anderson, R. M., Cohen, H. Y., Latorre-Esteves, M., and D. A. Sinclair. (2002). Inhibition of silencing and accelerated aging by nicotinamide, a putative negative regulator of yeast Sir2 and human SIRT1. J. Biol. Chem. 277, 45099-45107; Tsuchiya, M., Dang, N., Kerr, E. O., Hu, D., Steffen, K. K., Oakes, J. A., Kennedy, B. K. and M. Kaeberlein (2006) Sirtuin-independent effects of nicotinamide on lifespan extension from calorie restriction in yeast. Aging Cell. 5, 505-514.
# Assays were conducted as follow. Cells were streaked out on a YPGal agar plate and grown for 48 hours at 30° C. Four colonies were selected, 50 mL of YPGal medium in a flask was inoculated and grown at 30° C. with shaking O/N. OD600 was measured. The OD should be <0.7 for the cells to be in log phase. The cells were centrifuged, washed once and resuspended in CSMM-D restrictive growth medium. OD600 was measured again. The culture was diluted to an OD600 of 0.002 in CSMM-D restrictive medium. The culture was pre-incubated in a flask with shaking at 30° C. for 4 hours. At the end of the pre-incubation, OD600 was measured for reference. Nicotinamide (negative control), medium alone (positive control) and compounds in the presence of nicotinamide were plated with DMSO at 10× concentration (final concentrations: nicotinamide 1.5 mM, compounds 10 uM, DMSO 0.25%) in 384-well plates: 5 uL/well. The yeast was added to the plates: 45 uL/well. Plates were incubated at 30 C in a humidified chamber. After 48 hours incubation, plates were shaken for 30 seconds and OD615 was read in an EnVision (PerkinElmer) multilabel plate reader. For these assays, YPGal medium was prepared as 10 grams yeast extract, 20 grams peptone, 900 mL water, autoclave at 121° C. for 15 minutes, add 100 mL sterile 20% (w/v) galactose. CSMM-D (Complete Synthetic Minimal Medium-Dextrose) (restrictive) medium was prepared as 6.7 grams yeast nitrogen base without amino acids, 2.0 grams Drop-out mix complete (DOC) (USBiological Cat. no. D9515), 100 mL 20% (w/v) dextrose, water to 1.0 L, then filter sterilize.
# An activity threshold of >26% was calculated as greater than three standard deviations from the median compound inhibition. […] Because of the inherent error in all high-throughput screens including the fallacy of over-interpreting single dose data, a tiered scoring system was adopted for this Example, in which compounds were scored on a scale of 0-40 based on activity, with a scaled activity threshold of 11. Using this tiered scoring system, the compounds were ranked, with 906 of these compounds defined as “active” using this tiered scoring system. […]
# [2] = tested on: DeaD strain BB579; assay: "809" DeaD assay, dose-response screen (EC50) in presence of nicotinamide; type: cell-based, Saccharomyces cerevisiae; design: key: An activity threshold of EC50<=10 uM was set and compounds that met this criterion are defined as active; Compounds that exhibited an EC50>10 uM are defined as inactive; conditions: compounds 0.078-10 uM, 1.5 mM nicotinamide, 48 hours
# Procedure: As already discussed, Example 2 provides data using the “775” DeaD assay to determine compounds that counter the lifespan-reducing effects of 1.5 mM nicotinamide, with this Example identifying about 900 “active” compounds. Example 2 used only a single compound concentration of 10 uM; in the current Example, the top 500 of these “active” compounds were again screened using the DeaD assay, but now at 8 concentrations ranging from 0.078 to 10 uM, again in the presence of 1.5 mM nicotinamide, resulting in the data provided in Table 1. This more extensive data allowed for the determination of the half maximal effective concentration (EC50). See the “AID 809” assay (the “809” assay) results on the PubChem website at pubchem.ncbi.nlm.nih.gov/assay/assay.cgi?aid=809.
# Thus, in this Example compounds were screened in an 8-point 2-fold dilution series ranging from 0.078 to 10 uM in the presence of 1.5 mM nicotinamide. The percent activation of lifespan, i.e. percent reversal of nicotinamide effect on lifespan, was calculated using the optical density in control wells with cells treated with 1.5 mM nicotinamide as full lifespan shortening effect of nicotinamide (0% activation), and wells with cells grown in medium without nicotinamide as an indicator of 100% activation. From the % activation values of the different compound concentrations, the half maximal effective concentration (EC50) was calculated using IDBS ActivityBase software and XLfit equation 205 for a four parameter logistic fit; the maximum and minimum values were fixed at 100% and 0%.
# Assays were conducted as follow. Cells (DeaD strain BB579) were streaked out on a YPGal agar plate and grown for 48 hours at 30° C. Four colonies were selected, 50 mL of YPGal medium in a flask was inoculated and grown at 30 C with shaking O/N. OD600 was measured. The OD should be <0.7 for the cells to be in log phase. […] OD600 was measured again. […] At the end of the pre-incubation, OD600 was measured for reference. […] After 48 hours incubation, plates were shaken for 30 seconds and OD615 was read in an EnVision (PerkinElmer) multilabel plate reader. […]
# [3] = tested on: yeast cells; assay: Full DeaD assay lifespan timecourse (FIG. 3); type: cell-based, Saccharomyces cerevisiae; conditions: 2.5, 5.0, 10 uM, nonpermissive conditions
# Procedure: FIG. 3 provides a plot showing DeaD assays for compound SID 855620 (nalidixic acid) in the presence and absence of nicotinamide. The nalidixic acid was incubated with growing cells under nonpermissive conditions at concentrations of 2.5, 5.0, and 10 uM (micromolar) in the presence and absence of 1.5 mM nicotinamide. Control experiments for growth in the presence and absence of nicotinamide without the drug are included. The last three entries showing the line labeling are all results obtained with 1.5 mM nicotinamide and, respectively, 2.5, 5 or 10 uM nalidixic acid. The data lines shown in this figure correspond to (topmost to bottommost as they appear at the extreme right side of the data lines): 2.5, 10, or 5 uM nalidixic acid (no nicotinamide); blank cells (labeled “no NIC”); 5 or 10 uM nalidixic acid plus 1.5 mM nicotinamide (in both cases); 10 uM nalidixic acid (no nicotinamide); and, blank cells with 1.5 mM nicotinamide (labeled “1.5 mM NIC”).
# In order to validate the results of the “809” experiment of Example 3, timecourses for the effect of the top 70 compounds identified in Example 3 may be performed using the DeaD assay for, e.g., a 140 hour interval for each of these compounds. […]
# [4] = tested on: yeast cells; assay: Standard microdissection replicative lifespan assay (FIG. 4); type: cell-based, Saccharomyces cerevisiae
# Procedure: FIG. 4 provides standard microdissection lifespans for nicotinamide in the presence of nalidixic acid and 5 mM nicotinamide. Three experiments that included three concentrations of nalidixic acid all increased mean lifespans (shown in parentheses) and maximum lifespans. In this Figure, “#864” refers to nalidixic acid, e.g., the second entry in the legend refers to 54 uM nalidixic acid, the third entry refers to 107 uM nalidixic acid, etc. The number presented in parentheses in the figure legend refers to the mean lifespan of the population in each experiment presented in this Figure, e.g., the control population (5 mM nicotinamide only) has a mean lifespan of 14.2 generations, etc.
# In order to verify the data of Example 4 for nalidixic acid, microdissection experiments were performed using this compound to counter the effect of nicotinamide, with the results of these experiments shown in FIG. 4.
# [5] = tested on: C. elegans; conditions: Pnc1 and SIR2-ortholog dependent; Van der Horst et al. 2007; cited from earlier work
# [6] = tested on: DeaD strain; assay: DeaD assay validation with nicotinamide (FIG. 2); type: cell-based, Saccharomyces cerevisiae; conditions: 0.5, 0.75, 1 mM NIC
# Procedure: Panel A: Under growth in glucose (nonpermissive conditions) DeaD lifespans are reduced in a dose-dependent fashion by increasing concentrations of nicotinamide. […] The lines shown in panel A correspond to (top to bottom) 0, 0.5, 0.75, and 1 mM NIC. The 3 lines visible in panel B correspond to (topmost to bottommost), 0.5, 0.75, or 1 mM NIC; the 0 mM NIC line is not visible.
# The DeaD assay was developed as a high throughput proxy for conventional microdissection assays used to determine yeast replicative ageing. In order to verify the ability of this assay to produce results corresponding to conventional microdissection assay results, the data of FIG. 1 were obtained using either the DeaD assay (panel A) or via microdissection (panel B).
# [7] = 5 mM nicotinamide, three concentrations of nalidixic acid
Structure (SMILES),activity in the 775 assay (percent inhibition of nicotinamide lifespan shortening) [1],activity in the 809 assay (EC50) [2],further results
CCCC(=O)C1C(=O)CC(CC(C)SCC)CC1=O (stereo not shown) [SID 14732512],active,active,
COC(=O)CCCCC(=O)C1C(=O)CC(C)(C)C(C(=O)OC)C1=O (stereo not shown) [SID 7972920],inactive,,
CCOc1ccc(CC(=O)C2C(=O)CC(C)(C)CC2=O)cc1OCC [SID 14732962],inactive,,
CCCC(=O)C1C(=O)CC(C)(C)C(c2cc(C)no2)C1=O (stereo not shown) [SID 7972147],active,,
CC1(C)CC(=O)C(C(=O)CCCCC(=O)C2C(=O)CC(C)(C)CC2=O)C(=O)C1 [SID 4245034],inactive,,
CCOC(=O)C1C(=O)C(C(C)=O)C(=O)CC1CC(C)SCC (stereo not shown) [SID 14724551],active,active,
CCn1cc(C(=O)O)c(=O)c2ccc(C)nc21 [nalidixic acid],,,"DeaD lifespan ([3]; in the absence of nicotinamide): extends DeaD lifespan; DeaD lifespan ([3]; in the presence of 1.5 mM nicotinamide): extends DeaD lifespan; maximum lifespan [4, 7]: increased; mean lifespan [4, 7]: increased"
CC1(C)CC(=O)C(C(=O)Cc2ccccc2[N+](=O)[O-])C(=O)C1 [SID 17511642],active,active,
NC(=O)c1cccnc1 [nicotinamide],,,"C. elegans lifespan [5]: reduce C. elegans lifespan; growth under permissive conditions ([6]; growth in galactose (permissive conditions)): without altering growth; DeaD lifespan ([6]; growth in glucose (nonpermissive conditions)): reduces the lifespan of the DeaD strain in a dose-dependent fashion; mean lifespan ([4]; control population, 5 mM nicotinamide only): 14.2 generations"
Cc1cc(C2C(=O)C(C(=O)c3ccc(Cl)cc3)C(=O)CC2(C)C)on1 (stereo not shown) [SID 842694],inactive,,
